The supplement of paper PMC10307832

Key:
Assay in all cases: relative viability (nuclei count vs DMSO), 5 days (fraction); higher = more cells survive
EKVX = tested on: EKVX
Procedure, shortened: (§1)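 Nuclei were stained with Hoechst during a one-step fixation (final 0.05% Triton X-100, 1% formaldehyde, 1 ug/ml Hoechst) carried out 5 days after dosing, then counted on 4× images. The cells, lung cancer lines in 1536-well plates, had been dosed by pin tool the day after seeding with one drug alone or a fixed anchor-drug dose plus five library-drug doses (not always all listed) in √10 steps. Relative viability is the nuclei count in treated wells divided by that in vehicle wells, and each value is the median of duplicate plates.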

NCI-H661 = tested on: NCI-H661
Procedure, shortened: as §1

201T = tested on: 201T
Procedure, shortened: as §1

CAL-12T = tested on: CAL-12T
Procedure, shortened: as §1

NCI-H1666 = tested on: NCI-H1666
Procedure, shortened: as §1

NCI-H2170 = tested on: NCI-H2170
Procedure, shortened: as §1

SW 900 = tested on: SW 900
Procedure, shortened: as §1

BEN = tested on: BEN
Procedure, shortened: as §1

LOU-NH91 = tested on: LOU-NH91
Procedure, shortened: as §1

HARA = tested on: HARA
Procedure, shortened: as §1

NCI-H460 = tested on: NCI-H460
Procedure, shortened: as §1

NCI-H2009 = tested on: NCI-H2009
Procedure, shortened: as §1

NCI-H727 = tested on: NCI-H727
Procedure, shortened: as §1

NCI-H1437 = tested on: NCI-H1437
Procedure, shortened: as §1

PC-14 = tested on: PC-14
Procedure, shortened: as §1

NCI-H3122 = tested on: NCI-H3122
Procedure, shortened: as §1

NCI-H1650 = tested on: NCI-H1650
Procedure, shortened: as §1

LK-2 = tested on: LK-2
Procedure, shortened: as §1

COR-L 105 = tested on: COR-L 105
Procedure, shortened: as §1

NCI-H441 = tested on: NCI-H441
Procedure, shortened: as §1

ABC-1 = tested on: ABC-1
Procedure, shortened: as §1

Cc1sc2c(c1C)C(c1ccc(Cl)cc1)=N[C@@H](CC(=O)OC(C)(C)C)c1nnc(C)n1-2 [JQ1] + CCNC(=O)c1noc(-c2cc(C(C)C)c(O)cc2O)c1-c1ccc(CN2CCOCC2)cc1 [Luminespib] (partner 0.01 µM)
relative viability (EKVX; first compound 0.04 µM): 0.832 | relative viability (EKVX; first compound 0.1265 µM): 0.877 | relative viability (EKVX; first compound 0.4 µM): 0.895 | relative viability (EKVX; first compound 1.265 µM): 0.824 | relative viability (EKVX; first compound 4 µM): 0.572 | relative viability (NCI-H661; first compound 0.04 µM): 0.971 | relative viability (NCI-H661; first compound 0.1265 µM): 0.968 | relative viability (NCI-H661; first compound 0.4 µM): 1.01 | relative viability (NCI-H661; first compound 1.265 µM): 0.646 | relative viability (NCI-H661; first compound 4 µM): 0.593 | relative viability (201T; first compound 0.04 µM): 1.06 | relative viability (201T; first compound 0.1265 µM): 0.77 | relative viability (201T; first compound 0.4 µM): 0.745 | relative viability (201T; first compound 1.265 µM): 0.753 | relative viability (201T; first compound 4 µM): 0.522 | relative viability (CAL-12T; first compound 0.04 µM): 0.364 | relative viability (CAL-12T; first compound 0.1265 µM): 0.184 | relative viability (CAL-12T; first compound 0.4 µM): 0.367 | relative viability (CAL-12T; first compound 1.265 µM): 0.134 | relative viability (CAL-12T; first compound 4 µM): 0.146 | relative viability (NCI-H1666; first compound 0.04 µM): 1.03 | relative viability (NCI-H1666; first compound 0.1265 µM): 0.916 | relative viability (NCI-H1666; first compound 0.4 µM): 0.908 | relative viability (NCI-H1666; first compound 1.265 µM): 0.669 | relative viability (NCI-H1666; first compound 4 µM): 0.64 | relative viability (NCI-H2170; first compound 0.04 µM): 0.743 | relative viability (NCI-H2170; first compound 0.1265 µM): 0.837 | relative viability (NCI-H2170; first compound 0.4 µM): 0.572 | relative viability (NCI-H2170; first compound 1.265 µM): 0.326 | relative viability (NCI-H2170; first compound 4 µM): 0.336 | relative viability (SW 900; first compound 0.04 µM): 0.153 | relative viability (SW 900; first compound 0.1265 µM): 0.186 | relative viability (SW 900; first compound 0.4 µM): 0.169 | relative viability (SW 900; first compound 1.265 µM): 0.183 | relative viability (SW 900; first compound 4 µM): 0.177 | relative viability (BEN; first compound 0.04 µM): 0.259 | relative viability (BEN; first compound 0.1265 µM): 0.329 | relative viability (BEN; first compound 0.4 µM): 0.379 | relative viability (BEN; first compound 1.265 µM): 0.126 | relative viability (BEN; first compound 4 µM): 0.169 | relative viability (LOU-NH91; first compound 0.04 µM): 0.371 | relative viability (LOU-NH91; first compound 0.1265 µM): 0.371 | relative viability (LOU-NH91; first compound 0.4 µM): 0.31 | relative viability (LOU-NH91; first compound 1.265 µM): 0.285 | relative viability (LOU-NH91; first compound 4 µM): 0.271 | relative viability (HARA; first compound 0.04 µM): 0.65 | relative viability (HARA; first compound 0.1265 µM): 0.508 | relative viability (HARA; first compound 0.4 µM): 0.374 | relative viability (HARA; first compound 1.265 µM): 0.168 | relative viability (HARA; first compound 4 µM): 0.153 | relative viability (NCI-H460; first compound 0.04 µM): 0.031 | relative viability (NCI-H460; first compound 0.1265 µM): 0.0279 | relative viability (NCI-H460; first compound 0.4 µM): 0.0618 | relative viability (NCI-H460; first compound 1.265 µM): 0.032 | relative viability (NCI-H460; first compound 4 µM): 0.0328 | relative viability (NCI-H2009; first compound 0.04 µM): 0.971 | relative viability (NCI-H2009; first compound 0.1265 µM): 0.657 | relative viability (NCI-H2009; first compound 0.4 µM): 0.878 | relative viability (NCI-H2009; first compound 1.265 µM): 0.295 | relative viability (NCI-H2009; first compound 4 µM): 0.298 | relative viability (NCI-H727; first compound 0.04 µM): 0.357 | relative viability (NCI-H727; first compound 0.1265 µM): 0.423 | relative viability (NCI-H727; first compound 0.4 µM): 0.45 | relative viability (NCI-H727; first compound 1.265 µM): 0.35 | relative viability (NCI-H727; first compound 4 µM): 0.346 | relative viability (NCI-H1437; first compound 0.04 µM): 1.1 | relative viability (NCI-H1437; first compound 0.1265 µM): 1.09 | relative viability (NCI-H1437; first compound 0.4 µM): 1.11 | relative viability (NCI-H1437; first compound 1.265 µM): 0.617 | relative viability (NCI-H1437; first compound 4 µM): 0.393 | relative viability (PC-14; first compound 0.04 µM): 0.146 | relative viability (PC-14; first compound 0.1265 µM): 0.146 | relative viability (PC-14; first compound 0.4 µM): 0.0705 | relative viability (PC-14; first compound 1.265 µM): 0.0929 | relative viability (PC-14; first compound 4 µM): 0.0646 | relative viability (NCI-H3122; first compound 0.04 µM): 0.0811 | relative viability (NCI-H3122; first compound 0.1265 µM): 0.0744 | relative viability (NCI-H3122; first compound 0.4 µM): 0.162 | relative viability (NCI-H3122; first compound 1.265 µM): 0.0911 | relative viability (NCI-H3122; first compound 4 µM): 0.131 | relative viability (NCI-H1650; first compound 0.04 µM): 0.21 | relative viability (NCI-H1650; first compound 0.1265 µM): 0.199 | relative viability (NCI-H1650; first compound 0.4 µM): 0.167 | relative viability (NCI-H1650; first compound 1.265 µM): 0.161 | relative viability (NCI-H1650; first compound 4 µM): 0.206 | relative viability (LK-2; first compound 0.04 µM): 0.188 | relative viability (LK-2; first compound 0.1265 µM): 0.157 | relative viability (LK-2; first compound 0.4 µM): 0.143 | relative viability (LK-2; first compound 1.265 µM): 0.142 | relative viability (LK-2; first compound 4 µM): 0.136 | relative viability (COR-L 105; first compound 0.04 µM): 0.66 | relative viability (COR-L 105; first compound 0.1265 µM): 0.49 | relative viability (COR-L 105; first compound 0.4 µM): 0.369 | relative viability (COR-L 105; first compound 1.265 µM): 0.239 | relative viability (COR-L 105; first compound 4 µM): 0.206 | relative viability (NCI-H441; first compound 0.04 µM): 0.37 | relative viability (NCI-H441; first compound 0.1265 µM): 0.501 | relative viability (NCI-H441; first compound 0.4 µM): 0.419 | relative viability (NCI-H441; first compound 1.265 µM): 0.253 | relative viability (NCI-H441; first compound 4 µM): 0.235 | relative viability (ABC-1; first compound 0.04 µM): 0.612 | relative viability (ABC-1; first compound 0.1265 µM): 0.286 | relative viability (ABC-1; first compound 0.4 µM): 0.479 | relative viability (ABC-1; first compound 1.265 µM): 0.192 | relative viability (ABC-1; first compound 4 µM): 0.267
